Experimental data reported in patent US9198915B2, “Methods involving aldose reductase inhibitors” (The Board of Regents of The University of Texas System, priority 2007, dated 2015).

Tests used:
NF-κB = assay: NF-κB-dependent SEAP reporter assay in RW-treated SAEC; format: cell-based, human
Protocol: The SAEC (1×10^5 cells/well) were plated in 24-well plates, serum-starved in SABM for 24 hours with or without AR inhibitors, sorbinil and zopolrestat (20 μM), and transiently transfected with pNF-κB-secretory alkaline phosphatase (SEAP) construct or control plasmid pTAL-SEAP DNA (Clontech, Palo Alto, Calif.) using the LipofectAMINE Plus reagent. After 6 hours of transfection, medium was replaced with fresh medium and cells were treated with RW (50 μg/mL) for 48 hours. The cell culture medium was harvested, centrifuged and supernatant was analyzed for SEAP activity, essentially as described by the manufacturer (Clontech, Palo Alto, Calif.), using a 96-well chemiluminescence plate reader.

SAEC [1] = assay: TNF-α- and LPS-induced ROS generation in SAEC (DHE); format: cell-based, human; conditions: TNF-α 2 nM or LPS 1 μg/mL, 16 h
Protocol: Dihydroethidium (DHE, Molecular Probes) staining for superoxide was carried out as described previously. Briefly, approximately 1×10^5 cells were seeded on chambered slides and starved in serum-free basal medium with AR inhibitor or carrier for 24 h. The cells were treated with TNF-α (2 nM) or LPS (1 μg/mL) or carrier for an additional 16 h. SAEC were rinsed with cold PBS and incubated in PBS containing HEt (2.5 μmol/L) at 37° C. for 15 min. Cells were rinsed in PBS and mounted with fluorsave mounting medium containing DAPI (Vector Laboratories Inc., Burlingame, Calif.). The image of ethidium staining was measured with a Nikon epifluorescence microscope with a 585 nm long-pass filter.

[2] = test system: COX-2, iNOS, Bcl-XL, Bax, cyclin D1, E2F2; assay: RW-induced inflammatory, apoptosis and cell cycle proteins in SAEC (Western blot); format: cell-based, human; conditions: RW 50 μg/ml, 24 h
Description: Fourty micrograms of cytoplasmic protein extracts, prepared as described earlier were resolved on 10% SDS-PAGE. After electrophoresis, the proteins were electro transferred to a nitrocellulose membrane, blocked with 5% nonfat milk in TBST, and probed with antibodies against COX-2, NOS2, Bcl-xL, Bax, cyclin D1, E2F2 (1:1,000 dilution) for 2 hr. The blot was then washed, exposed to HRP-conjugated secondary antibodies (1:5,000 dilution) for 1 hr, and the antigen-antibody complex was detected by enhanced chemiluminescence (Amersham Pharmacia Biotech, Piscataway, N.J., USA).

SAEC [3] = assay: RW-induced ROS generation in SAEC (DHE); format: cell-based, human; conditions: SAEC preincubated with AR inhibitor, RW 150 μg/mL
Protocol: Dihydroethidium (DHE, Molecular Probes) staining for superoxide was carried out as described previously. Briefly, Approximately 1×10^5 cells were seeded on chambered slides and starved in serum-free SABM with or without AR inhibitor for 24 h. The cells were treated with RW for 16 h. SAEC were rinsed with cold PBS and incubated in PBS containing HEt (2.5 mmol/L) at 37° C. for 15 minutes. Cells were rinsed in PBS and mounted with Vectashield Hard Set™ mounting medium with DAPI (Vector Laboratories Inc., Burlingame, Calif.). The image of ethidium staining was measured with a Nikon epifluorescence microscope with a 585 nm long-pass filter.

[4] = test system: IL-6, IL-8 and Cox-2 mRNA; assay: RW-induced IL-6, IL-8 and Cox-2 mRNA in SAEC (RT-PCR); format: cell-based, human; conditions: RW 50 μg/ml, 6 h
Protocol: The SAECs were grown in 6-well plates at a density of approximately 3.0×10^5 cells/well. After approximately 80% confluence, cells were serum-starved in the presence or absence of sorbinil or zopolrestat (20 μM) for 24 h and then stimulated with 50 μg/ml RW for 6 h. Total RNA from SAECs was isolated by using RNeasy kit (Qiagen) as per supplier's instructions. Aliquots of RNA (0.5-1.0 μg) isolated from each sample were reverse transcribed with Omniscript and Sensiscript reverse transcriptase one-step RT-PCR system with HotStar Taq DNApolymerase (Qiagen) at 55° C. for 30 min followed by PCR amplification. The oligonucleotide primer sequences were as follows: 5′-ATGAACTCCT TCTCCACAAGCGC-3′ (SEQ ID NO:3) (sense) and 5′-[…]-3′ (SEQ TD NO:4) (antisense) for IL-6; 5′-[…]-3′ (SEQ ID NO:5) (sense) and 5′-TCT […]-3′ (SEQ ID NO:6) (antisense) for IL-8; 5 ‘-TGAAACCCACTCCA AACACAG-3’ (SEQ ID NO:7) (sense) and 5′-[…]-3′ (SEQ ID NO:8) (antisense) for Cox-2; and 5′-[…]-3′ (SEQ ID NO:9) (sense) and 5′-CGTC […]-3′ (SEQ ID NO:10) (antisense) for β-actin. PCR was carried out in a PCR Sprint thermal cycler (Thermo electron corporation, Milford, Mass.) under the following conditions: initial denaturation at 95° C. for 15 min followed by 35 cycles of 94° C. 1 min, 62° C. 1 min, 72° C. 1 min, and then 72° C. 10 min for final extension. […]

Lewis rats = assay: Endotoxin-induced uveitis (EIU): infiltrating cells and total protein in aqueous humor, histopathology; format: in vivo, rat; conditions: zopolrestat alone, no LPS
Protocol: Six to eight-weeks-old male Lewis rats weighing approximately 150-160 g were used in this study (n=6). All animals were kept in the UTMB's Animal Care Center. All the animal studies were conducted in compliance with the ARVO statement for the use of Animals in Ophthalmic and Vision Research. EIU was induced by a subcutaneous injection of Escherichia coli LPS (200 μg) dissolved in phosphate-buffered saline (PBS, pH 7.4). Rats in ART and ETU+ARI groups were injected intraperitoneally with AR inhibitor zopolrestat (25 mg/kg body weight) dissolved in dimethyl-sulfoxide (DMSO) 24 h before and immediately after LPS injection. Rats of control group received carrier (PBS+20% DMSO) injection.
The rats were euthanized after 3, 6, and 24 h after LPS injection and the aqueous humor (AqH) was collected immediately from eye by an anterior chamber puncture using a 30-gauge needle under the surgical microscope. For cell counting, the AqH samples were suspended in an equal amount of Trypan-blue solution, and the cells were counted using a Hemocytometer under a light microscope (Olympus Optical Ltd). The total protein concentration in the AqH samples was measured using a Biorad protein assay kit (Biorad, CA, USA). The AqH samples were stored in ice water until testing, cell counts and total protein concentrations were measured on the day of sample collection. […]

SMILES: O=C(O)Cc1nn(Cc2nc3cc(C(F)(F)F)ccc3s2)c(=O)c2ccccc12 [zopolrestat]
- inhibition at 20 µM (NF-κB; Homo sapiens, SAEC, AR inhibitor 20 μM, RW 50 μg/mL 48 hours, read-out: inhibition of RW-induced NF-κB-dependent SEAP activation): > 60%
- NF-κB-SEAP activity, compound alone (NF-κB; no RW): did not affect
- TNF-α- and LPS-induced increase in ROS levels (SAEC [1]): prevented these changes
- RW-induced increase of COX-2 and iNOS protein expression [2]: significantly prevented the increase
- prevention of RW-induced increase in expression of cyclin D1 and E2F2 [2]: > 90%
- RW-induced increase in cellular ROS levels (SAEC [3]): prevented these changes
- prevention of RW-induced increase of COX-2 mRNA levels [4]: > 60%
- prevention of RW-induced increase of IL-6 and IL-8 mRNA levels [4]: > 70%
- infiltration of cells, H&E sections, compound alone (Lewis rats): No significant infiltration of cells
